Experimental findings from ChEMBL document CHEMBL5126544, “Recent results from non-basic glycosidase inhibitors: How structural diversity can inform general strategies for improving inhibition potency” (Eur J Med Chem, 2022) are described below.

Data set [1] can be described thus: Cytotoxicity against MDCK cells. The class given is toxicity, cell-based, Canis lupus familiaris. The following applies: dog.
Another data set has as its target T1, Alpha amylase (Homo sapiens, UniProt P0DUB6).
T1 sequence (P0DUB6 whole entry): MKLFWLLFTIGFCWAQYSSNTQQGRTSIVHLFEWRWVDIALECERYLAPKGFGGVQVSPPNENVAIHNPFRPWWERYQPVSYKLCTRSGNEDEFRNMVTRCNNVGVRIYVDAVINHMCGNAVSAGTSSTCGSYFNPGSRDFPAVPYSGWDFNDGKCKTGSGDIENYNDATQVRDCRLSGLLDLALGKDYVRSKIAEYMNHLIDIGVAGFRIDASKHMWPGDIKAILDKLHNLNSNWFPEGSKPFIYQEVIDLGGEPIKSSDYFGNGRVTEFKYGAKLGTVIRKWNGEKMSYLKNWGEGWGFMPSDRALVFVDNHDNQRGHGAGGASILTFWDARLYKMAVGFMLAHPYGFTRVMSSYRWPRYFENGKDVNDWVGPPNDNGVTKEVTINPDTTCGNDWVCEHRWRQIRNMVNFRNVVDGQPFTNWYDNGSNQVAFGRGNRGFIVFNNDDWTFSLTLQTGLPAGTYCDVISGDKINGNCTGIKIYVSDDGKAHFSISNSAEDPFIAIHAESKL
Nature of the data set: Inhibition of human salivary alpha-amylase using starch as substrate preincubated for 5 mins followed by substrate addition for 8 mins and incubated with iodide potassium for another 5 mins. Details: species or system Saliva.

Data set [2] is described as follows: Inhibition of mammalian alpha-amylase using starch as substrate. Details: species or system Mammalia.
Data set [3] in a line: Inhibition of rat intestinal trehalase preincubated for 10 mins followed by substrate addition.
Data set [4] in a line: Inhibition of rat intestinal maltase preincubated for 10 mins followed by substrate addition.
The nature of data set [5]: Inhibition of rat intestinal gluco-amylase preincubated for 10 mins followed by substrate addition.
A short description of data set [6]: Inhibition of rat intestinal lactase preincubated for 10 mins followed by substrate addition.
Data set [7] is described as follows: Inhibition of Aspergillus niger maltase preincubated for 10 mins followed by substrate addition.
A short description of data set [8]: Inhibition of baker's yeast sucrase preincubated for 10 mins followed by substrate addition. Further details: species or system Saccharomyces cerevisiae.
Data set [9] can be described thus: Inhibition of rat intestinal isomaltase preincubated for 10 mins followed by substrate addition.
Data set [10] can be described thus: Inhibition of rat intestinal sucrase preincubated for 10 mins followed by substrate addition.
The nature of data set [11]: Inhibition of yeast alpha-glucosidase using p-nitrophenyl-alpha-D-glucopyranoside as substrate preincubated for 5 mins followed by substrate addition measured after 5 mins by microplate reader analysis. Details: species or system Saccharomyces cerevisiae.
A short description of data set [12]: Inhibition of porcine alpha-amylase using starch as substrate preincubated for 10 mins followed by substrate addition and measured after 10 mins by microplate reader analysis. Further details: species or system Sus scrofa.

Converted amounts (≈) assume the structure as drawn. Where only a bound is given, the exact number is not on record here.

In turn, `C/C=C/Oc1cc(C=O)ccc1O` returned an IC50 in data set [1] of over 600 µM.

As to `COC(=O)/C=C/c1ccc(OC/C=C(\C)CO)cc1`, on Alpha amylase, the IC50 was determined as 600 µM.

The molecule `CC(C)=CCC/C(C)=C/C=O` [CITRAL] returned an IC50 in data set [2] of 120 µM.

Take `CC1(C)CCC[C@]2(C)c3cc(O)c(O)cc3C(=O)C[C@@H]12`: the IC50 in data set [3] came to 30 µM; in data set [4] it was 12 µM; in data set [5], 1.6 µM; in data set [6] it was 20 µM; in data set [7] it was 14 µM; in data set [8] it was 11 µM. Moreover, the IC50 in data set [9] came out at 0.85 µM; in data set [10], 6.8 µM.

As for `C=C1CC[C@@H]2[C@](C)(CO)[C@H](O)CC[C@@]2(C)[C@@H]1C/C=C1/C(=O)OC[C@H]1O` [ANDROGRAPHOLIDE], the IC50 in data set [11] and in data set [12] was 11 mg/mL (≈ 31.4 mM) each time.
